In PubChem BioAssay AID1259407 (Chemical Carcinogenesis Research Information System (CCRIS), 2018):
Calls of active or inactive are those of the source. No rule for the calls is given here.

Test system: CCRIS mutagenicity, Ames/micronucleus/aberration tests
Experiment: CCRIS mutagenicity studies
[1] = Test System: AMES SALMONELLA TYPHIMURIUM, Strain/Indicator: TA98, Metabolic Activation: NONE, Method: STANDARD PLATE
[2] = Test System: AMES SALMONELLA TYPHIMURIUM, Strain/Indicator: TA100, Metabolic Activation: NONE, Method: STANDARD PLATE
[3] = Test System: AMES SALMONELLA TYPHIMURIUM, Strain/Indicator: TA98, Metabolic Activation: RAT, LIVER, S-9, AROCLOR 1254, Method: STANDARD PLATE
[4] = Test System: AMES SALMONELLA TYPHIMURIUM, Strain/Indicator: TA100, Metabolic Activation: RAT, LIVER, S-9, AROCLOR 1254, Method: STANDARD PLATE
[5] = Test System: AMES SALMONELLA TYPHIMURIUM, Strain/Indicator: TA1535, Metabolic Activation: NONE, Method: STANDARD PLATE
[6] = Test System: AMES SALMONELLA TYPHIMURIUM, Strain/Indicator: TA1535, Metabolic Activation: RAT, LIVER, S-9, AROCLOR 1254, Method: STANDARD PLATE
[7] = Test System: AMES SALMONELLA TYPHIMURIUM, Strain/Indicator: TA1537, Metabolic Activation: NONE, Method: STANDARD PLATE
[8] = Test System: AMES SALMONELLA TYPHIMURIUM, Strain/Indicator: TA1537, Metabolic Activation: RAT, LIVER, S-9, AROCLOR 1254, Method: STANDARD PLATE
[9] = Test System: AMES SALMONELLA TYPHIMURIUM, Strain/Indicator: TA100, Metabolic Activation: NONE, Method: PREINCUBATION

In the case of CS(=O)(=O)OCCCCOS(C)(=O)=O, the mutagenic call [1] is reported as “inactive; negative”, the mutagenic call (Test System: AMES SALMONELLA TYPHIMURIUM, Strain/Indicator: TA98, Metabolic Activation: S-9, Method: STANDARD PLATE) is reported as “inactive; negative” and the mutagenic call [2] is reported as “inactive; negative”. The mutagenic call (Test System: AMES SALMONELLA TYPHIMURIUM, Strain/Indicator: TA100, Metabolic Activation: S-9, Method: STANDARD PLATE) was “active; positive”, the mutagenic call (Test System: AMES SALMONELLA TYPHIMURIUM, Strain/Indicator: TA1537, Metabolic Activation: S-9, Method: STANDARD PLATE) was “inactive; negative” and the mutagenic call (Test System: E. COLI, Strain/Indicator: WP2 (HCR), Metabolic Activation: NONE, Method: STANDARD PLATE) was “inactive; negative”. For the same molecule, the mutagenic call (Test System: E. COLI, Strain/Indicator: WP2 (HCR), Metabolic Activation: S-9, Method: STANDARD PLATE) was “active; positive”, the mutagenic call (Test System: MOUSE LYMPHOMA, Strain/Indicator: L5178Y (TK+/TK-), Metabolic Activation: NONE, Method: SUSPENSION/PLATE) was “active; positive” and the mutagenic call (Test System: MOUSE LYMPHOMA, Strain/Indicator: L5178Y (TK+/TK-), Metabolic Activation: RAT, LIVER, S-9, AROCLOR 1254, Method: SUSPENSION/PLATE) was “active; positive”.

For O=C1CC(c2ccc(O)cc2)Oc2cc(O)cc(O)c21 (centres undefined), the mutagenic call (Test System: AMES SALMONELLA TYPHIMURIUM, Strain/Indicator: TA98, Metabolic Activation: HAMSTER, LIVER, S-9, AROCLOR 1254, Method: STANDARD PLATE) was “inactive; negative”, the mutagenic call [1] was “inactive; negative” and the mutagenic call [3] was “inactive; negative”. For the same molecule, the mutagenic call (Test System: AMES SALMONELLA TYPHIMURIUM, Strain/Indicator: TA100, Metabolic Activation: HAMSTER, LIVER, S-9, AROCLOR 1254, Method: STANDARD PLATE) was “inactive; negative”, the mutagenic call [2] was “inactive; negative” and the mutagenic call [4] was “inactive; negative”. The mutagenic call (Test System: AMES SALMONELLA TYPHIMURIUM, Strain/Indicator: TA1535, Metabolic Activation: HAMSTER, LIVER, S-9, AROCLOR 1254, Method: STANDARD PLATE) was “inactive; negative”, the mutagenic call [5] was “inactive; negative” and the mutagenic call [6] was “inactive; negative”. For the same molecule, the mutagenic call (Test System: AMES SALMONELLA TYPHIMURIUM, Strain/Indicator: TA1537, Metabolic Activation: HAMSTER, LIVER, S-9, AROCLOR 1254, Method: STANDARD PLATE) was “inactive; negative”, the mutagenic call [7] was “inactive; negative” and the mutagenic call [8] was “inactive; negative”. The mutagenic call (Test System: AMES SALMONELLA TYPHIMURIUM, Strain/Indicator: TA1538, Metabolic Activation: HAMSTER, LIVER, S-9, AROCLOR 1254, Method: STANDARD PLATE) was “inactive; negative”, the mutagenic call (Test System: AMES SALMONELLA TYPHIMURIUM, Strain/Indicator: TA1538, Metabolic Activation: NONE, Method: STANDARD PLATE) was “inactive; negative” and the mutagenic call (Test System: AMES SALMONELLA TYPHIMURIUM, Strain/Indicator: TA1538, Metabolic Activation: RAT, LIVER, S-9, AROCLOR 1254, Method: STANDARD PLATE) was “inactive; negative”.

For CC(C)C[C@@H]1NC(=O)CNC1=O, the mutagenic call [1] was “inactive; negative”, the mutagenic call [3] was “inactive; negative” and the mutagenic call [2] was “inactive; negative”. The mutagenic call [4] was “inactive; negative”, the mutagenic call [5] was “inactive; negative” and the mutagenic call [6] was “inactive; negative”. For the same molecule, the mutagenic call [7] was “inactive; negative” and the mutagenic call [8] was “inactive; negative”.

In the case of O=C(O)c1ccco1, the mutagenic call [1] is reported as “inactive; negative” and the mutagenic call [2] is reported as “inactive; negative”.

CCN(CC)CCOc1ccc(C(=C(Cl)c2ccccc2)c2ccccc2)cc1 was tested, and the mutagenic call (Test System: AMES SALMONELLA TYPHIMURIUM, Strain/Indicator: TA98, Metabolic Activation: NONE, Method: PREINCUBATION) was “inactive; negative”, the mutagenic call (Test System: AMES SALMONELLA TYPHIMURIUM, Strain/Indicator: TA98, Metabolic Activation: RAT LIVER S-9, 3-METHYLCHOLANTHRENE, Method: PREINCUBATION) was “active; positive” and the mutagenic call (Test System: AMES SALMONELLA TYPHIMURIUM, Strain/Indicator: TA98, Metabolic Activation: RAT LIVER S-9, AROCLOR 1254, Method: PREINCUBATION) was “active; positive”. The mutagenic call (Test System: AMES SALMONELLA TYPHIMURIUM, Strain/Indicator: TA98, Metabolic Activation: RAT LIVER S-9, PHENOBARBITAL, Method: PREINCUBATION) was “active; positive” and the mutagenic call (Test System: AMES SALMONELLA TYPHIMURIUM, Strain/Indicator: TA98, Metabolic Activation: RAT LIVER S-9, STREPTOZOCINE, Method: PREINCUBATION) was “active; positive”.

In the case of Cc1cccc(Nc2ccncc2S(=O)(=O)NC(=O)NC(C)C)c1, the mutagenic call [1] is reported as “inactive; negative”, the mutagenic call (Test System: AMES SALMONELLA TYPHIMURIUM, Strain/Indicator: TA98, Metabolic Activation: RAT, LIVER, S-9, Method: STANDARD PLATE) is reported as “inactive; negative” and the mutagenic call [2] is reported as “inactive; negative”. The mutagenic call (Test System: AMES SALMONELLA TYPHIMURIUM, Strain/Indicator: TA100, Metabolic Activation: RAT, LIVER, S-9, Method: STANDARD PLATE) was “inactive; negative”, the mutagenic call [5] was “inactive; negative” and the mutagenic call (Test System: AMES SALMONELLA TYPHIMURIUM, Strain/Indicator: TA1535, Metabolic Activation: RAT, LIVER, S-9, Method: STANDARD PLATE) was “inactive; negative”. For the same molecule, the mutagenic call [7] was “inactive; negative”, the mutagenic call (Test System: AMES SALMONELLA TYPHIMURIUM, Strain/Indicator: TA1537, Metabolic Activation: RAT, LIVER, S-9, Method: STANDARD PLATE) was “inactive; negative” and the mutagenic call (Test System: E. COLI, Strain/Indicator: WP2 UVRA, Metabolic Activation: NONE, Method: STANDARD PLATE) was “inactive; negative”. The mutagenic call (Test System: E. COLI, Strain/Indicator: WP2 UVRA, Metabolic Activation: RAT, LIVER, S-9, Method: STANDARD PLATE) was “inactive; negative”.

With CCOC(=O)Nc1ccc(SC[C@@H]2CO[C@@](Cn3ccnc3)(c3ccc(Cl)cc3Cl)O2)cc1 the mutagenic call (End Point: IN VIVO MICRONUCLEUS, Test System: BLOOD ERYTHROCYTES, Species: MOUSE, Strain/Sex: CD-1/MALE, Route: ORAL) was “active; positive (at 48 and 72 hr at higher dose)”.

With Cc1cc2c(c3ccc4ccccc4c13)[C@@H]1O[C@@H]1[C@H](O)[C@H]2O the mutagenic call [9] was “active; positive”.

CC1CS(=O)(=O)CCN1/N=C/c1ccc([N+](=O)[O-])o1 (centres undefined) was tested, and the mutagenic call (Test System: AMES SALMONELLA TYPHIMURIUM, Strain/Indicator: TA97, Metabolic Activation: NONE, Method: STANDARD PLATE) was “active; positive”, the mutagenic call [1] was “inactive; negative” and the mutagenic call [2] was “active; positive”. For the same molecule, the mutagenic call [4] was “active; positive” and the mutagenic call (Test System: AMES SALMONELLA TYPHIMURIUM, Strain/Indicator: TA102, Metabolic Activation: NONE, Method: STANDARD PLATE) was “active; positive”.

With C=C(Br)C=O the mutagenic call (Test System: AMES SALMONELLA TYPHIMURIUM, Strain/Indicator: TA100, Metabolic Activation: NONE, Method: LIQUID INCUBATION) was “active; positive”, the mutagenic call [9] was “active; positive” and the mutagenic call (Test System: AMES SALMONELLA TYPHIMURIUM, Strain/Indicator: TA100, Metabolic Activation: NONE, Method: PREINCUBATION, LIQUID INCUBATION) was “active; positive”. The mutagenic call [2] was “active; positive”, the mutagenic call (Test System: AMES SALMONELLA TYPHIMURIUM, Strain/Indicator: TA100, Metabolic Activation: RAT, LIVER, MICROSOMES, Method: PREINCUBATION) was “active; positive” and the mutagenic call (Test System: AMES SALMONELLA TYPHIMURIUM, Strain/Indicator: TA104, Metabolic Activation: NONE, Method: PREINCUBATION) was “active; positive”. For the same molecule, the mutagenic call (Test System: AMES SALMONELLA TYPHIMURIUM, Strain/Indicator: TA1535, Metabolic Activation: NONE, Method: LIQUID INCUBATION) was “active; positive”, the mutagenic call (Test System: AMES SALMONELLA TYPHIMURIUM, Strain/Indicator: TA1535, Metabolic Activation: NONE, Method: PREINCUBATION, LIQUID INCUBATION) was “active; positive” and the mutagenic call (Test System: UDS RAT HEPATOCYTES, Strain/Indicator: THY INCORP, Metabolic Activation: NONE) was “inactive; negative”.

With C=C.CC(N)c1ccccc1.[Cl-].[Cl-].[Pt+2] (centres undefined) the mutagenic call (Test System: AMES SALMONELLA TYPHIMURIUM, Strain/Indicator: TA92, Metabolic Activation: NONE, Method: STANDARD PLATE) was “inactive; negative”, the mutagenic call [1] was “inactive; negative” and the mutagenic call [2] was “inactive; negative”. For the same molecule, the mutagenic call (Test System: AMES SALMONELLA TYPHIMURIUM, Strain/Indicator: TA2410, Metabolic Activation: NONE, Method: STANDARD PLATE) was “inactive; negative”.
